Measured values published in patent US11944605B2, “Rapamycin analogs and uses thereof” (Janssen Pharmaceutica NV, priority 2018, dated 2024).
pIC50: −log10 of the molar value. Converted amounts (≈) assume the structure as drawn. “Also recorded” adds a separate entry of the source. Like-named read-outs stand apart in the source and are kept apart here. One block for each compound: values may come before it.

Columns and labels:
[1] = Pharmacokinetic properties in C57Bl/6 mice; type: in vivo; details: mouse, plasma; for half-life: read-out: Terminal T1/2 (converted)
Method: Pharmacokinetic Properties
The pharmacokinetic properties of compounds of the present invention were evaluated in C57Bl/6 mice and compared with rapamycin. Animals were fasted overnight prior to administration of I-29 or rapamycin (1 mg/kg IV, 10 mg/kg PO, or 2 mg/kg IP). Animals were bled at time intervals for up to 48 hours following administration of compounds. Whole blood from each mouse was indivisually collected in polypropylene tubes and immediately centrifuged. Alloquates of the separated plasma were promptly prepared for HPCL analysis.

[2] = test system: IFN-γ production; assay: IFN-γ production in allogenic mixed lymphocyte reaction; type: cell-based; details: read-out: IFN-γ Inhibition IC50s
Method: Assessment of Effect on IFN-γ Production in Allogenic Mixed Lymphocyte Reaction
The effect of rapamycin, everolimus, I-29, and I-117 on IFN-y production was evaluated in an allogenic mixed lymphocyte reaction (E.g., Eleftheriadis, T. et al., Int. J. Mol. Med., 37(5): 1412-20 (2016) https://doi.org/10.3892/ijmm.2016.2547).

[3] = test system: mTORC1 pathway in wild-type MEF cells; assay: Western blot, mTORC1 pathway in wild-type MEF cells; type: cell-based, mouse; details: 24 hours
Method: (§1) The methods employed were substantially similar to those described above. Compounds were evaluated in PC3 cells, Jurkat cells, wild-type mouse embryotic fibroblast (MEF) cells, tuberous sclerosis 2 (TSC2) negative (TSC −/−) MEF cells, and tuberous sclerosis 2 (TSC2) positive (TSC +/+) MEF cells. Cells were incubated with compounds of the present invention for various time periods (e.g., 5 minutes, 15 minutes, 30 minutes, 90 minutes, 24 hours, or 48 hours), and evaluated according to known methodologies, such as those herein described.

[4] = test system: mTORC2 (Akt phosphorylation) in wild-type MEF cells; assay: Western blot, mTORC2 pathway (pAkt) in wild-type MEF cells; type: cell-based, mouse; details: 24 hours
Method: as §1

[5] = test system: mTORC1 over mTORC2; assay: mTORC1 selectivity over mTORC2 at 24 hrs (Western blot based pS6K1 and pAKT assay); type: cell-based; details: 24 hrs
[6] = test system: pS6K1 (p-p70 S6 Kinase (Thr389)) in MCF-7 cells; assay: AlphaLISA Ultra pS6K1 Assay; type: cell-based; details: Homo sapiens, 1.5 h; MCF7 cells, 90 min
Procedure, shortened: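 AlphaLISA Ultra read-out (acceptor beads 2 h, then donor beads 2 h) on thawed lysates of MCF-7 cells. Cells had 20–24 h after seeding and a 2 h medium change, then 90 min of compound exposure at 0.5% final DMSO, with lysates stored at −80 °C.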

[7] = test system: mTORC2 (Akt phosphorylation) in TSC+/+ MEF cells; assay: Western blot, mTORC2 pathway (pAkt) in TSC+/+ MEF cells; type: cell-based, mouse
Method: as §1

[8] = test system: mTORC2 pathway (Akt phosphorylation) in PC3 cells; assay: Western blot, mTORC2 pathway (pAkt) in PC3 cells; type: cell-based; details: 24 hours
Procedure, shortened: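 Triton lysates analysed by Western blot for pS6K1 and pAkt, detected with IRDye 800 anti-rabbit secondary on a Li-Cor imager.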

[9] = test system: mTORC1 pathway in tuberous sclerosis 2 (TSC2) positive (TSC+/+) MEF cells; assay: Western blot, mTORC1 pathway in TSC+/+ MEF cells; type: cell-based, mouse
Method: as §1

[10] = test system: mTORC1 pathway (pS6K1 T389) in PC3 cells; assay: Western blot, mTORC1 pathway (pS6K1) in PC3 cells; type: cell-based; details: PC3 cells, 24 hours
Method: Western Blot Based pS6K1 and pAKT Assay at 24 and 48 Hour Timepoints
1. Seed six well plate with 500,000 PC3 cells per well and incubate for 20˜24 hour.
2. Add compounds into the cell plate. Incubate for 24 to 48 hours.
4. Plate is placed on ice and the media is removed via aspiration. The wells are washed with 1 mL of 1× PBS and then fully aspirated.
5. 110 μL of 1% Triton Lysis Buffer is added and each well is scraped vigorously.
6. Cell homogenates are transferred to 1.5 mL eppendorf tubes on ice and spun down at 4° C. for 10 minutes at 10,000 rpm.
9. The membranes were washed 3× with TBS-T with a 5 minute incubation between each wash then incubated with secondary antibody (LiCor IRDye 800 Donkey Anti Rabbit) for at least 30 minutes.
10. The membranes were washed 3× with TBS-T with a 5 minute incubation between each wash.
11. The gels were then incubated for 5 minutes with PBS at room temperature then imaged using a Li-Cor.
as §1

[11] = test system: 4E-BP1 phosphorylation in TSC+/+ MEF cells; assay: Western blot, 4E-BP1 phosphorylation in TSC+/+ MEF cells; type: cell-based, mouse; details: 24 hours
Method: as §1

[12] = Solubility in 100 mM phosphate buffer (pH 7.4); type: physicochemical; details: pH 7.4, aqueous buffer
Description: The compound numbers correspond to the compound numbers in Table 1.

[13] = test system: mTORC1 pathway in tuberous sclerosis (TSC2) negative (TSC−/−) MEF cells; assay: Western blot, mTORC1 pathway in TSC−/− MEF cells; type: cell-based, mouse; details: 24 hours
Method: as §1

[14] = test system: pAKT (p-Akt 1/2/3 (Ser473)) in MCF-7 cells; assay: AlphaLISA Ultra pAKT Assay; type: cell-based; details: Homo sapiens, 1.5 h; MCF7 cells, 90 min
[15] = test system: 4E-BP1 phosphorylation in PC3 cells; assay: Western blot, 4E-BP1 phosphorylation in PC3 cells; type: cell-based; details: 24 hours

- AUC(0-inf) ([1]; 1 mg/kg IV): 18400 ng·h/mL
- AUC(0-t) ([1]; 1 mg/kg IV): 17600 ng·h/mL
- MRT inf ([1]; 1 mg/kg IV): 15.9 h
- clearance ([1]; 1 mg/kg IV): 0.9 mL/min/kg
- half-life ([1]; 1 mg/kg IV): 14.7 h
- Vd ([1]; 1 mg/kg IV, read-out: Vss): 0.863 L/kg
- AUC(0-inf) ([1]; 2 mg/kg IP): 16900 ng·h/mL
- AUC(0-t) ([1]; 2 mg/kg IP): 16600 ng·h/mL
- Cmax ([1]; 2 mg/kg IP): 2590 ng/mL
- Tmax ([1]; 2 mg/kg IP): 0.25 h
- half-life ([1]; 2 mg/kg IP): 12.6 h
- AUC(0-inf) ([1]; 10 mg/kg PO): 31700 ng·h/mL
- AUC(0-t) ([1]; 10 mg/kg PO): 31200 ng·h/mL
- Cmax ([1]; 10 mg/kg PO): 3290 ng/mL
- Tmax ([1]; 10 mg/kg PO): 0.25 h
- half-life ([1]; 10 mg/kg PO): 11 h
- pIC50 [2]: < 5.52
SMILES: CO[C@@H]1C[C@H](C[C@@H](C)[C@@H]2CC(=O)[C@H](C)/C=C(\C)[C@@H](O)[C@@H](OC)C(=O)[C@H](C)C[C@H](C)/C=C/C=C/C=C(\C)[C@@H](OCCOCCOCCO)C[C@@H]3CC[C@@H](C)[C@@](O)(O3)C(=O)C(=O)N3CCCC[C@H]3C(=O)O2)CC[C@H]1O [I-29]

- pIC50 [6]: 9.00 to 10.00
SMILES: CO[C@@H]1C[C@H](C[C@@H](C)[C@@H]2CC(=O)[C@H](C)/C=C(\C)[C@@H](O)[C@@H](OC)C(=O)[C@H](C)C[C@H](C)/C=C/C=C/C=C(\C)[C@@H](OCCOCCOCCOCCO)C[C@@H]3CC[C@@H](C)[C@@](O)(O3)C(=O)C(=O)N3CCCC[C@H]3C(=O)O2)CC[C@H]1OCCO [I-115, (21E,23E,25E,26E,38R,39S,40R,41R,43S,45S,47S,48S,49R,50R,59R)-49, 59-dihydroxy-47-[2-[2-[2-(2-hydroxyethoxy)ethoxy]ethoxy]ethoxy]-48-[(1R)-2-[(1S,3R, 4R)-4-(2-hydroxyethoxy)-3-methoxy-cyclohexyl]-1-methyl-ethyl]-50-methoxy-38,39,40,41,51,52-hexamethyl-70, 71-dioxa-60-azatricyclohexatriaconta-21,23,25(51),26(52)-tetraene-53, 54,55,56,57-pentone]
- inhibition of the mTORC1 pathway [3]: moderate concentration dependent inhibition
- inhibition of mTORC2 (Akt phosphorylation) [4]: does not inhibit
- mTORC1 selective @ 24 hrs [5]: YES
- inhibition of mTORC2 (Akt phosphorylation) ([7]; 24 hours): does not inhibit
- inhibition of mTORC2 (Akt phosphorylation) [8]: does not inhibit
- inhibition of the mTORC1 pathway ([9]; 24 hours): moderate concentration dependent inhibition
- inhibition of the mTORC1 pathway [10]: strong inhibition

- pIC50 [6]: > 10.00
SMILES: COCCOCCO[C@H]1C[C@@H]2CC[C@@H](C)[C@@](O)(O2)C(=O)C(=O)N2CCCC[C@H]2C(=O)O[C@H]([C@H](C)C[C@@H]2CC[C@@H](OCCO)[C@H](OC)C2)CC(=O)[C@H](C)/C=C(\C)[C@@H](O)[C@@H](OC)C(=O)[C@H](C)C[C@H](C)/C=C/C=C/C=C/1C [I-105, (22E,24E,26E,27E,35R,36S,37R,38R,40S,42S,44S,45S,46R,47R,56R)-46, 56-dihydroxy-45-[(1R)-2-[(1S,3R, 4R)-4-(2-hydroxyethoxy)-3-methoxy-cyclohexyl]-1-methyl-ethyl]-47-methoxy-44-[2-(2-methoxyethoxy)ethoxy]-35,36,37,38,48,49-hexamethyl-66, 67-dioxa-57-azatricyclohexatriaconta-22,24,26(48),27(49)-tetraene-50, 51,52,53,54-pentone]
- inhibition of the mTORC1 pathway [3]: moderate inhibition; also recorded: strong inhibition
- inhibition of mTORC2 (Akt phosphorylation) [4]: do not inhibit
- mTORC1 selective @ 24 hrs [5]: YES
- inhibition of mTORC2 (Akt phosphorylation) ([7]; 90 minutes): does not inhibit
- inhibition of mTORC2 (Akt phosphorylation) ([7]; 24 hours): do not inhibit
- inhibition of 4E-BP1 phosphorylation [11]: no inhibition
- inhibition of the mTORC1 pathway ([9]; 90 minutes): strong inhibition
- inhibition of the mTORC1 pathway ([9]; 24 hours): strong inhibition

- solubility [12]: 30 to 60 µM (≈ 31.4 to 62.8 µg/mL)
- pIC50 [6]: 9.00 to 10.00
- pIC50 [14]: ≤ 7.00
SMILES: COCCOCCOC1C[C@@H]2CC[C@@H](C)[C@@](O)(O2)C(=O)C(=O)N2CCCC[C@H]2C(=O)O[C@H]([C@H](C)C[C@@H]2CC[C@@H](OCCO)[C@H](OC)C2)CC(=O)[C@H](C)/C=C(\C)[C@@H](O)[C@@H](OC)C(=O)[C@H](C)C[C@H](C)/C=C/C=C/C=C/1C (some centres unmarked) [I-2]
- inhibition of the mTORC1 pathway [13]: strong inhibition
- mTORC1 selective @ 24 hrs [5]: YES
- inhibition of mTORC2 (Akt phosphorylation) ([7]; 24 hours): do not inhibit
- inhibition of mTORC2 (Akt phosphorylation) [8]: do not inhibit
- inhibition of the mTORC1 pathway ([9]; 24 hours): moderate concentration dependent inhibition
- inhibition of the mTORC1 pathway [10]: strong inhibition
- inhibition of 4E-BP1 phosphorylation [15]: no inhibition
